The compound `CCOCCOCC` came in with a logP of 0.66.
`COCCOCCOC` yielded a log partition coefficient (logP) of -0.36.
The figure for `CCCCOCCO` is 0.76; for `CCCCOCCOCCCC` it is 2.48; for `CCOCCOCCOCC` it is 0.39.
The figure for `CCCOC(=O)CCC(=O)OCCC` is 2.16; for `CCCCCCOCCOCCO` it is 1.7.
`CCOCCOCCO` returned a log partition coefficient (logP) of -0.54.
The figure for `CCCCOCCOCCOCCCC` is 1.92; for `CCCCCCOCCO` it is 1.86.
The value for `CCCCOCCOCCO` was 0.56.
The value for `COC(=O)CCC(=O)OC` was 0.19; that for `CCCCOCCCC` was 3.21; that for `COCCOC` was -0.21.
`CCOC(=O)CCC(=O)OCC` had a logP of 1.19.

For the origin of these results see the SangsterLogP compilation.
